This is an account of results in the supplement of paper PMC13380429.

What all share (details): 72 h
The subject of test [1] is Vero E6. The test can be described thus: drug sensitivity score (DSS) for viability; higher = more toxic; extreme values may be limits of the assay.
Test [2] concerns Calu-3. Described as above.
Test [3] relates to HepG2. Described as above.
Test [4] concerns Caco-2. The test is described as above.
In test [5] the test system is U2OS. The description is as above.
Test [6] concerns Vero E6. The experiment in a line: cell viability relative to DMSO; higher = less toxic.
The test system of test [7] is Calu-3. The description is as above.
In test [8] the test system is HepG2. The description is as above.
Test [9] deals with Caco-2. Described as above.
Test [10] relates to U2OS. The description is as above.
Test [11] relates to Vero E6. The experiment in a line: relative viability EC50 (midpoint between 100% and the lowest measured viability); higher = less toxic.
In test [12] the test system is HepG2. The test is described as above.
In test [13] the test system is Caco-2. The test is described as above.
The test system of test [14] is U2OS. The description is as above.

Structures are written as SMILES. Some results are limits rather than exact numbers.

As usually defined, the cell viability is a read-out of living cells in per cent, often relative to untreated cells. Regarding `O=S(=O)(c1cccc2c(O)nccc12)N1CCCNCC1` [hydroxyfasudil], the drug sensitivity score with Vero E6 [1], in the test with Calu-3 [2], in the test with HepG2 [3], with Caco-2 [4] and in the test with U2OS [5] was 0 throughout. In addition, the cell viability with Vero E6 [6] (1 nM) worked out at 95.7%; in the test with Vero E6 [6] (10 nM) it was 95.8%; with Vero E6 [6] (100 nM), 96.4%; in the test with Vero E6 [6] (1000 nM), 90.3%; with Vero E6 [6] (10000 nM), 107%; in the test with Calu-3 [7] (1 nM), 91.6%. In addition, the cell viability with Calu-3 [7] (10 nM) was found to be 94.1%; in the test on Calu-3 [7] (100 nM), 110%; in the test on Calu-3 [7] (1000 nM), 119%; with Calu-3 [7] (10000 nM), 136%; with HepG2 [8] (1 nM), 96.6%; in the test on HepG2 [8] (10 nM) it was 97.7%. For the same compound, the cell viability was 97.7% in the test with HepG2 [8] (1000 nM); 98.3% in the test on HepG2 [8] (10000 nM); 98.7% in the test with Caco-2 [9] (1 nM); 99.3% with Caco-2 [9] (10 nM); 94% in the test with Caco-2 [9] (100 nM); 107% with Caco-2 [9] (1000 nM). Further, the cell viability in the test on Caco-2 [9] (10000 nM) is 109%; with U2OS [10] (1 nM) it was 95.4%; with U2OS [10] (10 nM) it was 101%; in the test with U2OS [10] (100 nM), 96.4%; in the test with U2OS [10] (10000 nM), 102%.
Turning to `O=[N+]([O-])O[C@@H]1CO[C@H]2[C@@H]1OC[C@@H]2O` [isosorbide-mononitrate], the drug sensitivity score with Vero E6 [1], with HepG2 [3], in the test with Caco-2 [4] and in the test with U2OS [5] was 0 in each case. Besides, the “relative viability EC50” value in the test with Vero E6 [11], with HepG2 [12], in the test with Caco-2 [13] and in the test with U2OS [14] was > 10 µM throughout. In addition, the cell viability is 103% in the test with Vero E6 [6] (1 nM); 103% in the test on Vero E6 [6] (10 nM); 101% with Vero E6 [6] (100 nM); 104% in the test on Vero E6 [6] (1000 nM); 94.4% with Vero E6 [6] (10000 nM); 101% in the test on HepG2 [8] (1 nM). Also, the cell viability in the test with HepG2 [8] (10 nM) was 108%; in the test with HepG2 [8] (100 nM), 91.2%; in the test on HepG2 [8] (1000 nM) it was 98.7%; in the test on HepG2 [8] (10000 nM) it was 93.3%; with Caco-2 [9] (1 nM), 100%; in the test on Caco-2 [9] (10 nM), 111%. Also, the cell viability in the test on Caco-2 [9] (100 nM) was determined as 94.4%; in the test with Caco-2 [9] (1000 nM), 117%; in the test on Caco-2 [9] (10000 nM), 114%; in the test on U2OS [10] (1 nM), 96.5%; in the test with U2OS [10] (10 nM), 96.8%; with U2OS [10] (100 nM) it was 93.5%. In addition, the results for the cell viability with U2OS [10] (1000 nM) and in the test on U2OS [10] (10000 nM) were 96.7% and 97.2%, respectively.
In the case of `CC(COc1ccccc1)NC(C)C(O)c1ccc(O)cc1` (configuration not stated) [isoxsuprine], the drug sensitivity score in the test on Vero E6 [1], with Calu-3 [2] and in the test on HepG2 [3] was 0 throughout.
On to `O=c1c(O)c(-c2ccc(O)cc2)oc2cc(O)cc(O)c12` [kaempferol], for which the drug sensitivity score in the test on Vero E6 [1] came out at 0; in the test with HepG2 [3], 0; in the test on Caco-2 [4] it was 0.9; in the test with U2OS [5], 0. In addition, the “relative viability EC50” value in the test with Vero E6 [11], in the test with HepG2 [12], in the test on Caco-2 [13] and with U2OS [14] was > 10 µM each time. The cell viability is 101% with Vero E6 [6] (1 nM); 104% in the test on Vero E6 [6] (10 nM); 98.5% with Vero E6 [6] (100 nM); 102% in the test on Vero E6 [6] (1000 nM); 103% with Vero E6 [6] (10000 nM); 93.8% in the test on HepG2 [8] (1 nM). Besides, the cell viability in the test on HepG2 [8] (10 nM) came to 86.9%; in the test with HepG2 [8] (100 nM), 106%; in the test with HepG2 [8] (1000 nM), 97.5%; in the test with HepG2 [8] (10000 nM), 94.1%; in the test with Caco-2 [9] (1 nM), 98.5%; in the test with Caco-2 [9] (10 nM), 99.9%. The cell viability stood at 97.5% with Caco-2 [9] (100 nM); 95.9% in the test on Caco-2 [9] (1000 nM); 82.4% in the test with Caco-2 [9] (10000 nM); 98.2% in the test on U2OS [10] (1 nM); 99.6% in the test with U2OS [10] (10 nM); 97% with U2OS [10] (100 nM). The cell viability turned out to be 96.7% with U2OS [10] (1000 nM) and 101% in the test on U2OS [10] (10000 nM).
